Experiments:
[1] = In-vitro drug release analysis (dialysis, PBS pH 7.4) with release kinetics and f1/f2 comparison; assay type: physicochemical; settings: oxaliplatin release
Experimental: The drug release testing was conducted according to a described method (Shazly et al., Comparison of dialysis and dispersion methods for in vitro release determination of drugs from multilamellar liposomes, Dissolution Technol., vol. 15, no. 2, pp. 7-10, 2008). […] A volume of 0.5 ml of liposomal preparation was placed in a dialysis tubing (3.8 cm in length). Both ends were tied. The dialysis bag was suspended in 25 ml PBS at pH 7.4 and maintained at 37±0.5° C. (Shazly et al., 2008). The dispersion was rotated at 200 strokes/minute in a water bath shaker (Shazly et al., 2008). At predetermined time intervals of 0.25, 0.5, 1, 1.5, 2, 4, 6, 8, 12, 24, 48, and 72 h; 1 ml aliquots were sampled and replaced with 1 ml fresh pH 7.4 PBS, which was maintained at the same temperature as the samples being 37±0.5° C. Drug concentrations were determined using HPLC.
Two methods were used to investigate the kinetics of drug release profile from the prepared liposomal formulations.
This method involved the fitting of the release data to one of the following seven release kinetic models.
Where, Qt is the amount of drug released in time t, Q0 is the initial amount of drug in the solution and K0 is the zero order release constant expressed in units of concentration/time. To study the release kinetics, data obtained from in-vitro drug release studies were plotted as cumulative amount of drug released versus time.
Where, Ct is the concentration of drug released in time t, C0 is the initial concentration of drug, K1 is the first order rate constant. The data obtained were plotted as log cumulative percentage of drug remaining versus time which would yield a straight line with a slope of −K/2.303.
Where, Q is the amount of drug released in time t, KH is the Higuchi dissolution constant. The data obtained were plotted as cumulative percentage of drug released versus square root of time.
Where, Qt is the amount of drug remaining in time t, Q0 is the initial amount of the drug in liposome and KC is the rate constant for Hixson-Crowell rate equation. The data obtained were plotted as Cube root of cumulative percentage of drug remaining versus time.
Where Mt/M∞ is a fraction of drug released at time t, KP is the release rate constant and n is the release exponent. The data obtained were plotted as log (cumulative percentage of drug released) versus log (time).
Where [Mt/M∞] is a fraction of drug released at time t, KB is the release rate constant. To study the release kinetics, data obtained from in-vitro drug release were plotted as [d(Mt/M∞)/dt] against the root of time inverse on x-axis.
Where Vm is the maximum release rate, Km is the Michaelis-Menten constant, C is the amount of drug released, and t is time. The data obtained were plotted as drug release % versus time. Michaelis-menten was previously reported in describing the release kinetics of Ketorolac from silica nanoparticles (Lopez Goerneet al., Obtaining of sol-gel ketorolac-silica nanoparticles: Characterization and drug release kinetics, J. Nanomater., vol. 2013, 2013).
This method utilizes the difference factor (f1), similarity factor (f2) to compare the release profiles of different formulations by measuring the percent difference and the percent similarity respectively.
Where, n is the number of release sample time intervals, Rt, and Tt are the percent released at each time point, t, for the reference and test drug release profiles, respectively.

MCF-7 cell line = experiment: γ-H2AX assay (DNA damage); assay type: cell-based, human; settings: 2 μM, 1 hr exposure, 24 hours in fresh media; preliminary data
Experimental: After incubation, the media was discarded and the cells were further incubated in fresh media for 24 hours. Cells were then fixed using formaldehyde and permeabilized with Triton X-100, and subsequently incubated with H2AX primary antibody for 1 hr. Then, cells were washed using PBS and were further incubated for 30 min. in FITC mouse secondary antibody and washed using PBS. Finally cells were stained using DAPI and observed under a fluorescence microscope.

[2] = reference [91]; cited from earlier work

N[C@@H]1CCCC[C@H]1N.O=C([O-])C(=O)[O-].[Pt+2] [Oxaliplatin, Platinum(2+) ethanedioate (1R,2R)-1,2-cyclohexanediamine (1:1:1)]
Baker-Lonsdale K (release rate constant) [1]: 0.1963
First-order K1 (release rate constant) [1]: −0.0172
Higuchi KH (rate constant) [1]: 4.5644
Hixson-Crowell KC (cube root law release constant) [1]: −0.0127
Korsmeyer-peppas n (slope exponent) [1]: 0.0257
Michaelis-Menten K (release rate constant) [1]: 0.0422
Zero-order K0 (release rate constant) [1]: 0.3444
F1 (difference factor) ([1]; Reference LP-Ox): 11.37
F2 (similarity factor) ([1]; Reference LP-Ox): 50.60
F1 (difference factor) ([1]; Reference LP-void-Oxpt): 22.47
F2 (similarity factor) ([1]; Reference LP-void-Oxpt): 38.25
F1 (difference factor) ([1]; Reference Lipoxal): 252.7
F2 (similarity factor) ([1]; Reference Lipoxal): 8.940
DNA damage magnitude (γ-H2AX immunofluorescence), in words (MCF-7 cell line): relatively lower DNA damage
Cell membrane permeability [2]: <1 × 10^−6 [91] cm/s

Source: patent US20190307690A1 (THE AMERICAN UNIVERSITY IN CAIRO, priority 2016, published 2019)
